In US20220265641A1, “SEROTONERGIC AGENT AND 5-HT1A-RECEPTOR ANTAGONIST” (ATLAS PHARMACEUTICALS BV, priority 2019, published 2022):

Legend:
[1] = tested on: time to first ejaculation of male rats; assay: Time until first ejaculation in male rats, 5-HT1A-receptor antagonist in conjunction with serotonergic agent (Example 3); assay type: in vivo; conditions: antagonist in conjunction with Citalopram, Fluoxetine, Ifoxetine, Paroxetine or Zimelidine shortly before sexual activity, relative to the rat's own average without treatment
Method: In a study with male rats, 10 different 5-HT1A-receptor antagonists are administered in conjunction with five different serotonergic agents shortly before sexual activity.

5-HT1A-receptor = target: T1, 5-HT1A-receptor (Homo sapiens, UniProt P08908); conditions: healthy human volunteers, cited from earlier work
T1 construct: host or cells: brain of healthy human volunteers (in vivo PET)
T1 sequence (P08908 1-422): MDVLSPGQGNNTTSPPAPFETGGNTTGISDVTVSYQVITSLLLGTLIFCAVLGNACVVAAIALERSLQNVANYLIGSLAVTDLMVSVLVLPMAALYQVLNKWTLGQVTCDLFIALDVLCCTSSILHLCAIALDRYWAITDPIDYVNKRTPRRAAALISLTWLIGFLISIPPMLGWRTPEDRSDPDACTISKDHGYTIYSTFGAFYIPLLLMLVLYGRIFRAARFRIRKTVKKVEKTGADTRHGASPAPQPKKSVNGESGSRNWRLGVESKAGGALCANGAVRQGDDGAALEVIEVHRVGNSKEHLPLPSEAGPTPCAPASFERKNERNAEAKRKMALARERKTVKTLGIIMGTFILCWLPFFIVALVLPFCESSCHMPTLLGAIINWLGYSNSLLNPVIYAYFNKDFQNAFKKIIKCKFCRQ

male rat sexual behavior = assay: Male rat sexual behavior model (sexually trained males, 30-min access to receptive females); assay type: in vivo; conditions: for behavioral effects on sexual behavior, antagonist alone: separate experiments, not shown
Source text: A model of sexual behavior in male rats was developed that is predictive of SSRI-effects on human male sexual behavior (Bijlsma et al. 2014; Olivier et al. 2006; 2017). In this male rat sexual behavior model, SSRIs inhibit sexual behavior, but only upon chronic administration thereby mimicking and modeling the SSRI effects in human males.
Male rats were sexually trained till they obtained a stable sexual performance (on average 2 ejaculations per 30-min, the standard testing duration). Animals were injected intraperitoneally 30-min before testing after which males had 30 min access to the females that were behaviorally sexually receptive. A trained researcher scored the sexual behavior of the males according to published and accepted methods (Chan et al. 2010).

5-HT1A receptor = conditions: cited from earlier work

## C=CCc1ccccc1OCC(O)CNC(C)C (centres unmarked) [Alprenolol]
[1]
  Potential average increase in time to first ejaculation (%): 75%

## O=C1c2ccccc2S(=O)(=O)N1CCCCN1CCN(c2cc(Cl)cc3c2OCCO3)CC1 [DU125530, 2-[4-[4-(7-chloro-2,3-dihydro-1,4-benzodi-oxin-5-yl)-1-piperazinyl]butyl]-1,2-benzisothiazol-3(2H)-one-1,1-dioxide]
[1]
  Potential average increase in time to first ejaculation (%): 254%
5-HT1A-receptor; 10 to 40-mg daily dose range, 2 h post the last dose, dose-dependent
  5-HT1A-receptor occupancy: 0-72%
5-HT1A-receptor; 10 to 40-mg daily dose range
  side effects: minor side effects
  tolerability: well tolerated
5-HT1A-receptor
  correlation of occupancy with plasma levels: correlated highly
Male rat sexual behavior; DU125530 alone at doses up to 20 mg/kg
  behavioral effects on sexual behavior, antagonist alone: no behavioral effects on sexual behavior
Male rat sexual behavior; acute DU125530 20 mg/kg in combination with acute paroxetine 5 mg/kg, intraperitoneally 30 min before testing
  effect on male rat sexual behavior: strongly inhibited male rat sexual behavior
Male rat sexual behavior; administered alone
  effects when administered alone: no effects
Male rat sexual behavior; combined with paroxetine
  pharmacological activity when combined with paroxetine: pharmacologically active
Male rat sexual behavior; rat, in vivo
  safety: safe
5-HT1A receptor; Mos et al. 1997
  5-HT1A receptor antagonistic activities in vitro and in vivo: selective 5-HT1A receptor antagonistic activities
5-HT1A receptor; given on itself, Joordens et al. 1997
  biological activity given on itself: without biological activity
5-HT1A receptor; several animal models
  5-HT1A receptor antagonistic activity in several animal models: nice and reliable 5-HT1A receptor antagonistic activity

## c1ccc(C(c2ccccc2)N2CCN(CCCC3(c4ccccc4)OCCO3)CC2)cc1 [Dotarizine]
[1]
  Potential average increase in time to first ejaculation (%): 67%

## CSc1ccc2c(c1)C(N1CCN(C)CC1)Cc1ccccc1S2 (centres unmarked) [Methiothepin]
[1]
  Potential average increase in time to first ejaculation (%): 97%

## OC(CNCC(O)C1CCc2cc(F)ccc2O1)C1CCc2cc(F)ccc2O1 (centres unmarked) [Nebiovolol]
[1]
  Potential average increase in time to first ejaculation (%): 95%

## CC(C)NCC(O)COc1cccc2[nH]ccc12 (centres unmarked) [Pindolol]
[1]
  Potential average increase in time to first ejaculation (%): 46%

## CC(C)NCC(O)COc1cccc2ccccc12 (centres unmarked) [Propranolol]
[1]
  Potential average increase in time to first ejaculation (%): 87%

## Cc1nc2n(c(=O)c1CCN1CCC(c3noc4cc(F)ccc34)CC1)CCCC2 [Risperidone]
[1]
  Potential average increase in time to first ejaculation (%): 102%

## O=C(CCCN1CCC2(CC1)C(=O)NCN2c1ccccc1)c1ccc(F)cc1 [Spiperone]
[1]
  Potential average increase in time to first ejaculation (%): 80%

## COc1ccccc1N1CCN(CCN(C(=O)C2CCCCC2)c2ccccn2)CC1 [WAY100,635, reference compound]
Male rat sexual behavior; WAY100,635 (0.3 mg/kg) in combination with paroxetine (5 mg/kg), own data, compared with DU125530 + paroxetine
  effect on male rat sexual behavior: comparable inhibition
Male rat sexual behavior; WAY100,635 alone at doses up to 1 mg/kg, IP
  behavioral effects on sexual behavior, antagonist alone: no behavioral effects on sexual behavior
